Drawing on US20160002180A1, “ANTIVIRAL COMPOUNDS” (priority 2013, published 2016), this text covers EC50 for 34 molecules.

Holding throughout (assay): microbe, parasite or virus in culture
What all share (format): cell-based

The test system of experiment [1] is VSVpp (pseudotyped VSV G particles). Conditions: Vesicular stomatitis virus, 72 h, read-out: VSVpp (EC50, μM).
For experiment [2], the system named is HCVpp GT-1a (pseudotyped HCV GT1a particles, E1 and E2 envelope proteins of GT1a H77 strain). Particulars: Hepatitis C virus, 72 h, read-out: HCVpp GT-1a (EC50, μM).
In experiment [3] the test system is HCVpp GT-1b (pseudotyped HCV GT1b particles, E1 and E2 envelope proteins of GT1b Con1 strain). Conditions: Hepatitis C virus, 72 h, read-out: HCVpp GT-1b (EC50, μM).

A word on the EC50: it is the concentration that produces a half-maximal response.

Take `CN(C)c1nc(Nc2cc(Cl)c(Br)c(Cl)c2)n[nH]1` [Compound 16, N^3-(4-Bromo-3,5-dichloro-phenyl)-N^5,N^5-dimethyl-1H-[1,2,4]triazole-3,5-diamine]: the EC50 was 43.1 µM in experiment [1] and 1.58 µM in experiment [2].

Regarding `Clc1cc(Nc2nc[nH]n2)cc(Cl)n1` [Compound 30, (2,6-Dichloro-pyridin-4-yl)-(1H-[1,2,4]triazol-3-yl)-amine], the results for the EC50 in experiment [1] and in experiment [2] were 100 µM and 1.06 µM, respectively.

Turning to `NCc1nc(Nc2cc(Cl)cc(Cl)c2)n[nH]1` [Compound 3, (5-Aminomethyl-1H-[1,2,4]triazol-3-yl)-(3,5-dichloro-phenyl)-amine], the EC50 in experiment [1] and in experiment [3] was 100 µM each time.

Regarding `COc1n[nH]c(Nc2cc(Cl)cc(Cl)c2)n1` [Compound 8, (3,5-Dichloro-phenyl)-(5-methoxy-2H-[1,2,4]triazol-3-yl)-amine], the EC50 is 100 µM in experiment [1], 52.6 µM in experiment [3] and 15.9 µM in experiment [2].

For `CN(C)c1nc(Nc2cc(Cl)cc(Cl)c2)n[nH]1` [Compound 15, N^3-(3,5-Dichloro-phenyl)-N^5,N^5-dimethyl-1H-[1,2,4]triazole-3,5-diamine], the values for the EC50 in experiment [1] and in experiment [2] were 100 µM and 24.8 µM, respectively.

Consider `Fc1c(Cl)cc(Nc2nc[nH]n2)cc1Cl` [Compound 28, (3,5-Dichloro-4-fluoro-phenyl)-(1H-[1,2,4]triazol-3-yl)-amine], for which the EC50 in experiment [1] was found to be 84.1 µM; in experiment [3], 3.77 µM; in experiment [2], 0.477 µM.

Regarding `Fc1c(Cl)cc(Nc2ncn(Cc3ccccc3)n2)cc1Cl` [Compound 27, (1-Benzyl-1H-[1,2,4]triazol-3-yl)-(3,5-dichloro-4-fluoro-phenyl)-amine], the values for the EC50 in experiment [1], in experiment [3] and in experiment [2] were 9.11 µM, 8.91 µM and 6.13 µM, respectively.

With `CS(=O)(=O)c1n[nH]c(Nc2cc(Cl)c(Br)c(Cl)c2)n1` [Compound 14, (4-Bromo-3,5-dichloro-phenyl)-(5-methanesulfonyl-2H-[1,2,4]triazol-3-yl)-amine], the EC50 in experiment [1] and in experiment [2] was 100 µM throughout.

Regarding `CNc1nc(Nc2cc(Cl)cc(Cl)c2)n[nH]1` [Compound 19, N^3-(3,5-Dichloro-phenyl)-N^5-methyl-1H-[1,2,4]triazole-3,5-diamine], the EC50 in experiment [1] worked out at 100 µM; in experiment [2] it was 3.41 µM.

`Clc1cc(Cl)cc(Nc2nc(Cl)n[nH]2)c1` [Compound 12, (5-Chloro-2H-[1,2,4]triazol-3-yl)-(3,5-dichloro-phenyl)-amine]: the figures for the EC50 in experiment [1] and in experiment [2] were 14 µM and 13.8 µM, respectively.

Take `Clc1cc(Cl)cc(Nc2nc[nH]n2)c1` [Compound 25, (3,5-Dichloro-phenyl)-(1H-[1,2,4]triazol-3-yl)-amine]: the values for the EC50 in experiment [1], in experiment [3] and in experiment [2] were 97 µM, 5.17 µM and 1.06 µM, respectively.

Turning to `COc1n[nH]c(Nc2cc(Cl)nc(Cl)c2)n1` [Compound 9, (2,6-Dichloro-pyridin-4-yl)-(5-methoxy-2H-[1,2,4]triazol-3-yl)-amine], the EC50 was found to be 98 µM in experiment [1], 45.3 µM in experiment [3] and 13.2 µM in experiment [2].

As to `Clc1cc(Cl)cc(Nc2nc(Br)n[nH]2)c1` [Compound 7, (5-Bromo-2H-[1,2,4]triazol-3-yl)-(3,5-dichloro-phenyl)-amine], the EC50 is 28.2 µM in experiment [1], 20.8 µM in experiment [3] and 16.5 µM in experiment [2].

In the case of `FC(F)(F)c1nc(Nc2cc(Cl)cc(Cl)c2)n[nH]1` [Compound 22, (3,5-Dichloro-phenyl)-(5-trifluoromethyl-1H-[1,2,4]triazol-3-yl)-amine], the EC50 was 6.7 µM in experiment [1], 5.63 µM in experiment [3] and 5.5 µM in experiment [2].

With `CC(C)Cc1nc(Nc2cc(Cl)cc(Cl)c2)n[nH]1` [Compound 33, (3,5-Dichloro-phenyl)-(5-isobutyl-1H-[1,2,4]triazol-3-yl)-amine], the EC50 in experiment [1] came out at 100 µM; in experiment [3], 61.7 µM; in experiment [2] it was 1.26 µM.

With `CS(=O)(=O)c1n[nH]c(Nc2cc(Cl)cc(Cl)c2)n1` [Compound 13, (3,5-Dichloro-phenyl)-(5-methanesulfonyl-2H-[1,2,4]triazol-3-yl)-amine], the EC50 in experiment [1] and in experiment [2] was 100 µM each time.

For the molecule `Clc1cc(Nc2ncn[nH]2)cc(Cl)c1Br` [Compound 18, (4-Bromo-3,5-dichloro-phenyl)-(2H-[1,2,4]triazol-3-yl)-amine], the EC50 in experiment [1] stood at 22.4 µM; in experiment [3] it was 2.52 µM; in experiment [2] it was 0.252 µM.

Consider `Nc1cccc(Nc2ncn(Cc3ccccc3)n2)c1` [Compound 29, N-(1-Benzyl-1H-[1,2,4]triazol-3-yl)-benzene-1,3-diamine], for which the EC50 was determined as 100 µM in experiment [1], 87.2 µM in experiment [3] and 95 µM in experiment [2].

On to `COc1n[nH]c(Nc2ccc(C#N)c(C(F)(F)F)c2)n1` [Compound 10, 4-(5-Methoxy-2H-[1,2,4]triazol-3-ylamino)-2-trifluoromethyl-benzonitrile], for which the EC50 amounted to 8.3 µM in experiment [1], 7.83 µM in experiment [3] and 7.53 µM in experiment [2].

Consider `Fc1n[nH]c(Nc2cc(Cl)cc(Cl)c2)n1` [Compound 4, (3,5-Dichloro-phenyl)-(5-fluoro-2H-[1,2,4]triazol-3-yl)-amine], for which the EC50 in experiment [1] is 30.9 µM; in experiment [3] it was 30.1 µM; in experiment [2] it was 28.7 µM.

Regarding `N#Cc1c(Cl)cc(Nc2ncn[nH]2)cc1Cl` [Compound 20, 2,6-Dichloro-4-(2H-[1,2,4]triazol-3-ylamino)-benzonitrile], the EC50 in experiment [1] was determined as 100 µM; in experiment [3], 1.66 µM; in experiment [2] it was 0.121 µM.

On to `COCc1n[nH]c(Nc2cc(Cl)nc(Cl)c2)n1` [Compound 6, (2,6-Dichloro-pyridin-4-yl)-(5-methoxymethyl-2H-[1,2,4]triazol-3-yl)-amine], for which the EC50 in experiment [1] is 100 µM; in experiment [3], 35.5 µM; in experiment [2] it was 4.59 µM.

On to `Cc1nc(Nc2cc(Cl)cc(Cl)c2)n[nH]1` [Compound 1, (3,5-Dichloro-phenyl)-(5-methyl-1H-[1,2,4]triazol-3-yl)-amine], for which the EC50 amounted to 100 µM in experiment [1], 6.25 µM in experiment [3] and 1.99 µM in experiment [2].

As for `Clc1cc(Cl)cc(Nc2ncnn2Cc2ccccc2)c1` [Compound 24, (2-Benzyl-2H-[1,2,4]triazol-3-yl)-(3,5-dichloro-phenyl)-amine], the EC50 in experiment [1] came out at 34.9 µM; in experiment [3] it was 32.5 µM; in experiment [2], 27.1 µM.

Turning to `COc1n[nH]c(Nc2cc(Cl)c(Br)c(Cl)c2)n1` [Compound 11, (4-Bromo-3,5-dichloro-phenyl)-(5-methoxy-2H-[1,2,4]triazol-3-yl)-amine], the EC50 in experiment [1] amounted to 12.7 µM; in experiment [3], 7.23 µM; in experiment [2] it was 2.1 µM.

On to `Clc1cc(Cl)cc(Nc2ncn(Cc3ccccc3)n2)c1` [Compound 23, (1-Benzyl-1H-[1,2,4]triazol-3-yl)-(3,5-dichloro-phenyl)-amine], for which the EC50 came to 46.5 µM in experiment [1], 53 µM in experiment [3] and 28.9 µM in experiment [2].

`Clc1cc(Cl)cc(Nc2n[nH]c(Cc3ccccc3)n2)c1` [Compound 34, (5-Benzyl-1H-[1,2,4]triazol-3-yl)-(3,5-dichloro-phenyl)-amine]: the EC50 worked out at 38.9 µM in experiment [1], 13.5 µM in experiment [3] and 0.785 µM in experiment [2].

Take `Fc1c(Cl)cc(Nc2ncnn2Cc2ccccc2)cc1Cl` [Compound 26, (2-Benzyl-2H-[1,2,4]triazol-3-yl)-(3,5-dichloro-4-fluoro-phenyl)-amine]: the EC50 in experiment [1] came to 17.5 µM; in experiment [3] it was 27.1 µM; in experiment [2] it was 16.2 µM.

With `COCc1n[nH]c(Nc2cc(Cl)cc(Cl)c2)n1` [Compound 5, (3,5-Dichloro-phenyl)-(5-methoxymethyl-2H-[1,2,4]triazol-3-yl)-amine], the EC50 in experiment [1] turned out to be 100 µM; in experiment [3], 24.2 µM; in experiment [2], 4.13 µM.

`CC(C)c1nc(Nc2cc(Cl)cc(Cl)c2)n[nH]1` [Compound 32, (3,5-Dichloro-phenyl)-(5-isopropyl-1H-[1,2,4]triazol-3-yl)-amine]: the EC50 is 33.8 µM in experiment [1] and 22.1 µM in experiment [2].

On to `Clc1cc(Cl)cc(Nc2n[nH]c(-c3ccccc3)n2)c1` [Compound 2, (3,5-Dichloro-phenyl)-(5-phenyl-1H-[1,2,4]triazol-3-yl)-amine], for which the values for the EC50 in experiment [1], in experiment [3] and in experiment [2] were 30.1 µM, 27.5 µM and 26.7 µM, respectively.

In the case of `Fc1c(Cl)cc(Nc2n[nH]c(N3CCOCC3)n2)cc1Cl` [Compound 31, (3,5-Dichloro-4-fluoro-phenyl)-(5-morpholin-4-yl-1H-[1,2,4]triazol-3-yl)-amine], the EC50 in experiment [1] turned out to be 29.9 µM; in experiment [2], 25.8 µM.

As to `CNc1nc(Nc2ccc(C#N)c(C(F)(F)F)c2)n[nH]1` [Compound 21, 4-(5-Methylamino-1H-[1,2,4]triazol-3-ylamino)-2-trifluoromethyl-benzonitrile], the figures for the EC50 in experiment [1], in experiment [3] and in experiment [2] were 24.9 µM, 5.01 µM and 1.26 µM, respectively.

Consider `Clc1cc(Nc2ncn[nH]2)cc(Cl)c1Cl` [Compound 17, (2H-[1,2,4]Triazol-3-yl)-(3,4,5-trichloro-phenyl)-amine], for which the values for the EC50 in experiment [1] and in experiment [2] were 28.2 µM and 0.392 µM, respectively.
